Source: ChEMBL document CHEMBL3885881, “DrugMatrix”
“And” between values parts separate entries of the source, which are not always exact repeats. Identical values can stand only once.

Organism: Rattus norvegicus
Assay: DrugMatrix - Regimen: Daily Repeat
Format: toxicity, organism-based, Sprague-Dawley
Design: regimen Daily Repeat, gender Male, age 6-8 weeks
Conditions: in vivo, po, route oral GAVAGE, vehicle .5 % CMC; for BASOPHIL / EOSINOPHIL / ERYTHROCYTE COUNT / HEMATOCRIT / HEMOGLOBIN / LEUKOCYTE COUNT / LYMPHOCYTE / MEAN CORPUSCULAR HEMOGLOBIN / MEAN CORPUSCULAR HEMOGLOBIN CONCENTRATION / MEAN CORPUSCULAR VOLUME / MONOCYTE / NEUTROPHIL / PLATELET COUNT / ABSOLUTE BASOPHIL / ABSOLUTE EOSINOPHIL / ABSOLUTE LYMPHOCYTE / ABSOLUTE MONOCYTE / ABSOLUTE SEGMENTED NEUTROPHIL: tissue Blood; for ALANINE AMINOTRANSFERASE / ALBUMIN / ALKALINE PHOSPHATASE / ASPARTATE AMINOTRANSFERASE / BLOOD UREA NITROGEN / CHLORIDE / CHOLESTEROL / CREATINE PHOSPHOKINASE / CREATININE / GLUCOSE / PHOSPHORUS / POTASSIUM / SODIUM / TOTAL BILIRUBIN / TOTAL PROTEIN / LACTATE DEHYDROGENASE / LIPASE / URIC ACID: tissue Plasma
[1] = 0 mg/kg, 72 h, dose level Control, time 3 day
[2] = 0 mg/kg, 120 h, dose level Control, time 5 day
[3] = 0 mg/kg, 2184 h, dose level Control, time 91 day
[4] = 0 mg/kg, […], dose level Control, time 28 day
[5] = 0.0007 mg/kg, 120 h, dose level Low, time 5 day
[6] = 0.0007 mg/kg, 2184 h, dose level Low, time 91 day

Structure (SMILES): Clc1cc2c(cc1Cl)Oc1cc(Cl)c(Cl)cc1O2 [2,3,7,8-TETRACHLORODIBENZO-P-DIOXIN]
- BASOPHIL [1]: 0.52%
- EOSINOPHIL [1]: 0.48%
- ERYTHROCYTE COUNT [1]: 6.68 x10E6/uL
- HEMATOCRIT [1]: 43.07%
- HEMOGLOBIN [1]: 13.48 G/DL
- LEUKOCYTE COUNT [1]: 11.41 x10E3/uL
- LYMPHOCYTE [1]: 80.78%
- MEAN CORPUSCULAR HEMOGLOBIN [1]: 20.2 pg
- MEAN CORPUSCULAR HEMOGLOBIN CONCENTRATION [1]: 31.32 G/DL
- MEAN CORPUSCULAR VOLUME [1]: 64.45 fL
- MONOCYTE [1]: 2.23%
- NEUTROPHIL [1]: 14.73%
- PLATELET COUNT [1]: 1225.83 x10E3/uL
- ALANINE AMINOTRANSFERASE [1]: 44.5 u/L
- ALBUMIN [1]: 3.62 G/DL
- ALKALINE PHOSPHATASE [1]: 404.5 u/L
- ASPARTATE AMINOTRANSFERASE [1]: 71.67 u/L
- BLOOD UREA NITROGEN [1]: 15 mg/dL
- CHLORIDE [1]: 103 MEQ/L
- CHOLESTEROL [1]: 96.83 mg/dL
- CREATINE PHOSPHOKINASE [1]: 236 u/L
- CREATININE [1]: 0.43 mg/dL
- GLUCOSE [1]: 186.83 mg/dL
- PHOSPHORUS [1]: 12.67 mg/dL
- POTASSIUM [1]: 7.1 MEQ/L
- SODIUM [1]: 147.33 MEQ/L
- TOTAL BILIRUBIN [1]: 0.52 mg/dL
- TOTAL PROTEIN [1]: 6.18 G/DL
- ABSOLUTE BASOPHIL [2]: 92 cells/µL
- ABSOLUTE EOSINOPHIL [2]: 52 cells/µL
- ABSOLUTE LYMPHOCYTE [2]: 6560 cells/µL
- ABSOLUTE MONOCYTE [2]: 160 cells/µL
- ABSOLUTE SEGMENTED NEUTROPHIL [2]: 1130 cells/µL
- BASOPHIL [2]: 1.14% and 0.92%
- EOSINOPHIL [2]: 0.68% and 0.43%
- ERYTHROCYTE COUNT [2]: 7.51 x10E6/uL and 7.03 x10E6/uL
- HEMATOCRIT [2]: 46.04% and 46.55%
- HEMOGLOBIN [2]: 15.62 G/DL and 14.32 G/DL
- LEUKOCYTE COUNT [2]: 8.03 x10E3/uL and 12.22 x10E3/uL
- LYMPHOCYTE [2]: 81.54% and 82.65%
- MEAN CORPUSCULAR HEMOGLOBIN [2]: 20.84 pg and 20.35 pg
- MEAN CORPUSCULAR HEMOGLOBIN CONCENTRATION [2]: 33.94 G/DL and 30.77 G/DL
- MEAN CORPUSCULAR VOLUME [2]: 61.42 fL and 66.28 fL
- MONOCYTE [2]: 2% and 2.28%
- NEUTROPHIL [2]: 14.24% and 12.73%
- PLATELET COUNT [2]: 1427.2 x10E3/uL and 1268.67 x10E3/uL
- ALANINE AMINOTRANSFERASE [2]: 35.6 u/L and 44.5 u/L
- ALBUMIN [2]: 3.64 G/DL and 3.73 G/DL
- ALKALINE PHOSPHATASE [2]: 233 u/L and 340.83 u/L
- ASPARTATE AMINOTRANSFERASE [2]: 81 u/L and 66.5 u/L
- BLOOD UREA NITROGEN [2]: 12 mg/dL and 13.33 mg/dL
- CHLORIDE [2]: 109.4 MEQ/L and 102.17 MEQ/L
- CHOLESTEROL [2]: 47.6 mg/dL and 82.17 mg/dL
- CREATINE PHOSPHOKINASE [2]: 183.2 u/L and 146.67 u/L
- CREATININE [2]: 0.4 mg/dL and 0.35 mg/dL
- GLUCOSE [2]: 134.6 mg/dL and 186.17 mg/dL
- LACTATE DEHYDROGENASE [2]: 89.4 u/L
- LIPASE [2]: 17.2 u/L
- PHOSPHORUS [2]: 13.02 mg/dL and 11.83 mg/dL
- POTASSIUM [2]: 7 MEQ/L and 6.47 MEQ/L
- SODIUM [2]: 149.6 MEQ/L and 148.83 MEQ/L
- TOTAL PROTEIN [2]: 6.06 G/DL and 6.27 G/DL
- URIC ACID [2]: 1.04 mg/dL
- ABSOLUTE BASOPHIL [3]: 130 cells/µL
- ABSOLUTE EOSINOPHIL [3]: 70 cells/µL
- ABSOLUTE LYMPHOCYTE [3]: 8670 cells/µL
- ABSOLUTE MONOCYTE [3]: 160 cells/µL
- ABSOLUTE SEGMENTED NEUTROPHIL [3]: 1530 cells/µL
- BASOPHIL [3]: 1.13%
- EOSINOPHIL [3]: 0.66%
- ERYTHROCYTE COUNT [3]: 9.13 x10E6/uL
- HEMATOCRIT [3]: 48.47%
- HEMOGLOBIN [3]: 16.56 G/DL
- LEUKOCYTE COUNT [3]: 10.5 x10E3/uL
- LYMPHOCYTE [3]: 81.63%
- MEAN CORPUSCULAR HEMOGLOBIN [3]: 18.16 pg
- MEAN CORPUSCULAR HEMOGLOBIN CONCENTRATION [3]: 34.14 G/DL
- MEAN CORPUSCULAR VOLUME [3]: 53.14 fL
- MONOCYTE [3]: 1.53%
- NEUTROPHIL [3]: 14.71%
- PLATELET COUNT [3]: 1280.22 x10E3/uL
- ALANINE AMINOTRANSFERASE [3]: 28.89 u/L
- ALBUMIN [3]: 3.69 G/DL
- ALKALINE PHOSPHATASE [3]: 101.11 u/L
- ASPARTATE AMINOTRANSFERASE [3]: 70.67 u/L
- BLOOD UREA NITROGEN [3]: 16.78 mg/dL
- CHLORIDE [3]: 104.56 MEQ/L
- CHOLESTEROL [3]: 58.78 mg/dL
- CREATINE PHOSPHOKINASE [3]: 91.22 u/L
- CREATININE [3]: 0.61 mg/dL
- GLUCOSE [3]: 142.33 mg/dL
- LACTATE DEHYDROGENASE [3]: 81.67 u/L
- LIPASE [3]: 13 u/L
- PHOSPHORUS [3]: 7.54 mg/dL
- POTASSIUM [3]: 6.27 MEQ/L
- SODIUM [3]: 149.89 MEQ/L
- TOTAL BILIRUBIN [3]: 0.19 mg/dL
- TOTAL PROTEIN [3]: 7.12 G/DL
- URIC ACID [3]: 0.97 mg/dL
- ABSOLUTE BASOPHIL [4]: 150 cells/µL
- ABSOLUTE EOSINOPHIL [4]: 54 cells/µL
- ABSOLUTE LYMPHOCYTE [4]: 8890 cells/µL
- ABSOLUTE MONOCYTE [4]: 190 cells/µL
- ABSOLUTE SEGMENTED NEUTROPHIL [4]: 2250 cells/µL
- BASOPHIL [4]: 1.26%
- EOSINOPHIL [4]: 0.46%
- ERYTHROCYTE COUNT [4]: 8.34 x10E6/uL
- HEMATOCRIT [4]: 48.66%
- HEMOGLOBIN [4]: 16.04 G/DL
- LEUKOCYTE COUNT [4]: 11.58 x10E3/uL
- LYMPHOCYTE [4]: 76.74%
- MEAN CORPUSCULAR HEMOGLOBIN [4]: 19.2 pg
- MEAN CORPUSCULAR HEMOGLOBIN CONCENTRATION [4]: 32.92 G/DL
- MEAN CORPUSCULAR VOLUME [4]: 58.32 fL
- MONOCYTE [4]: 1.76%
- NEUTROPHIL [4]: 19.44%
- PLATELET COUNT [4]: 1282.6 x10E3/uL
- ALANINE AMINOTRANSFERASE [4]: 27 u/L
- ALBUMIN [4]: 3.68 G/DL
- ALKALINE PHOSPHATASE [4]: 146.2 u/L
- ASPARTATE AMINOTRANSFERASE [4]: 66.6 u/L
- BLOOD UREA NITROGEN [4]: 12.4 mg/dL
- CHLORIDE [4]: 104.6 MEQ/L
- CHOLESTEROL [4]: 59.6 mg/dL
- CREATINE PHOSPHOKINASE [4]: 121.8 u/L
- CREATININE [4]: 0.6 mg/dL
- GLUCOSE [4]: 143 mg/dL
- LACTATE DEHYDROGENASE [4]: 87.8 u/L
- LIPASE [4]: 17.4 u/L
- PHOSPHORUS [4]: 8.68 mg/dL
- POTASSIUM [4]: 6.02 MEQ/L
- SODIUM [4]: 152.8 MEQ/L
- TOTAL BILIRUBIN [4]: 0.26 mg/dL
- TOTAL PROTEIN [4]: 6.92 G/DL
- URIC ACID [4]: 0.52 mg/dL
- ABSOLUTE BASOPHIL [5]: 72 cells/µL
- ABSOLUTE EOSINOPHIL [5]: 44 cells/µL
- ABSOLUTE LYMPHOCYTE [5]: 8990 cells/µL
- ABSOLUTE MONOCYTE [5]: 220 cells/µL
- ABSOLUTE SEGMENTED NEUTROPHIL [5]: 1360 cells/µL
- BASOPHIL [5]: 0.68%
- EOSINOPHIL [5]: 0.38%
- ERYTHROCYTE COUNT [5]: 7.39 x10E6/uL
- HEMATOCRIT [5]: 46.1%
- HEMOGLOBIN [5]: 15.68 G/DL
- LEUKOCYTE COUNT [5]: 10.75 x10E3/uL
- LYMPHOCYTE [5]: 83.64%
- MEAN CORPUSCULAR HEMOGLOBIN [5]: 21.26 pg
- MEAN CORPUSCULAR HEMOGLOBIN CONCENTRATION [5]: 34.02 G/DL
- MEAN CORPUSCULAR VOLUME [5]: 62.42 fL
- MONOCYTE [5]: 2.06%
- NEUTROPHIL [5]: 12.68%
- PLATELET COUNT [5]: 1506.2 x10E3/uL
- ALANINE AMINOTRANSFERASE [5]: 30.8 u/L
- ALBUMIN [5]: 3.64 G/DL
- ALKALINE PHOSPHATASE [5]: 238.8 u/L
- ASPARTATE AMINOTRANSFERASE [5]: 76.4 u/L
- BLOOD UREA NITROGEN [5]: 11.4 mg/dL
- CHLORIDE [5]: 107.8 MEQ/L
- CHOLESTEROL [5]: 61.4 mg/dL
- CREATINE PHOSPHOKINASE [5]: 181.6 u/L
- CREATININE [5]: 0.5 mg/dL
- GLUCOSE [5]: 115 mg/dL
- LACTATE DEHYDROGENASE [5]: 69.6 u/L
- LIPASE [5]: 31.8 u/L
- PHOSPHORUS [5]: 11.8 mg/dL
- POTASSIUM [5]: 6.66 MEQ/L
- SODIUM [5]: 150.8 MEQ/L
- TOTAL BILIRUBIN [5]: 0.14 mg/dL
- TOTAL PROTEIN [5]: 6.08 G/DL
- URIC ACID [5]: 0.72 mg/dL
- ABSOLUTE BASOPHIL [6]: 270 cells/µL
- ABSOLUTE EOSINOPHIL [6]: 140 cells/µL
- ABSOLUTE LYMPHOCYTE [6]: 10000 cells/µL
- ABSOLUTE MONOCYTE [6]: 280 cells/µL
- ABSOLUTE SEGMENTED NEUTROPHIL [6]: 2090 cells/µL
- BASOPHIL [6]: 2.13%
